Test results taken from patent US20260199362A1, “VITAMIN B2 FOR USE IN IMPROVING GUT HEALTH” (DSM IP Assets B.V., priority 2022, published 2026).

Tested on: Lactobacillus rhamnosus GG (Lactobacillus rhamnosus DSM 32550)
Assay: Short-term batch-fermentation colon model (M-SHIME) with qPCR of Lactobacillus rhamnosus GG level
Type: cell-based
Procedure: A short-term batch-fermentation experiment was carried out by ProDigest, consisting of a colonic incubation of a representative dose of a selected vitamin with a representative bacterial inoculum under simulated conditions for the proximal large intestine. In the current experiment, the bacterial inocula were derived from fresh fecal samples of six different healthy adult donors. […]
In this study, the Lactobacillus rhamnosus GG equivalent Lactobacillus rhamnosus DSM 32550 (Biocare Copenhagen) was added to the colon model containing the donor samples, alone or in combination with vitamin B2 (see Table 1). After 48 h of incubation, the abundance of the added strain was analyzed using primers that are specific for Lactobacillus rhamnosus GG and its equivalent Lactobacillus rhamnosus DSM 32550. […]
qPCR was performed on putative phage tail protein gene (NCBI reference NC_013198) to monitor the level of the supplemented probiotic Lactobacillus rhamnosus GG strain within the gut microbiome, as described previously (Brandt, Alatossava (2003)-Specific identification of certain probiotic Lactobacillus rhamnosus strains with PCR primers based on phage-related sequences). Samples were analyzed from the mucus environment following 48 h of incubation. […]

For Cc1cc2nc3c(=O)[nH]c(=O)nc-3n(C[C@H](O)[C@H](O)[C@H](O)CO)c2cc1C [vitamin B2, riboflavin], the “copies of the Lactobacillus rhamnosus GG specific putative phage tail protein gene relative to control (Lactobacillus rhamnosus GG alone)” value (vitamin B2 0.01667 g/L co-supplemented with L. rhamnosus GG 1*10^9 CFU, mucus environment, 48 h colonic incubation, fecal inocula of six healthy human donors, average, qPCR) was “around three” and the “levels of Lactobacillus rhamnosus GG in the colon model, as compared to the respective control” value (vitamin B2 0.01667 g/L co-supplemented with L. rhamnosus GG, 48 h, six human donors, paired t-test, p<0.05) was “significantly increased”.
